Results taken from patent US11591326B2, “Inhibitors of protein arginine methyltransferase 5 (PRMT5), pharmaceutical products thereof, and methods thereof” (PHARMABLOCK SCIENCES (NANJING), INC., priority 2018, dated 2023).
Like-named read-outs stand apart in the source and are kept apart here.

Legend:
[1] = Pharmacokinetic study in rat; format: in vivo, Male SD rats; conditions: male, SD; for plasma clearance / Vd: 2 mg/kg, Rat PK (IV) 2 mpk; for plasma clearance: read-out: Clint (converted); for Vd / AUC(0-t) / Cmax / Tmax / bioavailability / half-life: plasma; for Vd: read-out: Vss; for AUC(0-t) / Cmax / Tmax / bioavailability / half-life: 10 mg/kg, Rat PK (PO) 10 mpk; for half-life: read-out: T½ (converted)
Description: Male SD rats (185-265 g; purchased from Shanghai SLAC laboratory animal CO. LTD; n=18, with 3 per compound) were treated with a single dose of compounds being tested at 2 mg/kg by intravenous tail-vein injection and 10 mg/kg by oral gavage administration, with both doses formulated in 5% DMSO+45% PEG400 in water. Animals upon PO administration were fasted overnight and fed 4 hours after dosing. Animals upon IV administration were free access to food and water. The study was performed in accordance with the guidelines and standards of the Association for Assessment and Accreditation of Laboratory Animal Care (AAALAC International) and the National Institutes of Health.
The animal is restrained manually. Approximately 150 μL whole blood/time point is collected in K2EDTA tube via tail vein. Blood sample will be put on ice and centrifuged at 2000 g for 5 min to obtain plasma sample within 15 minutes. Plasma samples were stored at approximately −70° C. until analysis. An aliquot of 20 μL sample was added with 200 μL IS (Diclofenac, 100 ng/mL) in ACN. The mixture was vortexed for 10 min and centrifuged at 5800 rpm for 10 min. An aliquot of 1 μL supernatant was injected for LC-MS/MS analysis. For 10×-diluted sample, an aliquot of 2 μL sample was added with 18 μL blank plasma. The sample preparation procedure is same with no-diluted sample. Standard calibration curves were constructed by analyzing a series of control plasma aliquots containing Diclofenac (100 ng/mL) as an internal standard and 1.0-3,000 ng/mL testing compounds. Compound concentrations were determined with UPLC-MS/MS-22 (Triple Quad™ 6500).

[2] = tested on: Glioblastoma U-251 cell; test: Cell proliferation inhibition, U-251 (CellTiter-Glo); format: cell-based; conditions: Homo sapiens, U-251, incubated for 12 days (read after 8 or 12 days)
Description: Materials and Cell Lines: Z-138, U251, and MIA PaCa2 cells were purchased from ATCC (American Type Culture Collection, Manassas, Va.) and Chinese Academy of Science (Shanghai, China). Iscove's Modified Dulbecco's Medium (IMDM), Dulbecco's Modified Eagle Medium (DMEM), penicillin-streptomycin, heat inactivated fetal bovine serum (FBS), and horse serum was purchased from ThermoFisher, Waltham, Mass., USA. Corning 96- and 384-well cell culture plates were purchased from ThermoFisher, Waltham, Mass., USA. Cell-Titer Glo® was purchased from Promega Corporation, Madison, Wis., USA.
In order to evaluate the inhibitory ability of compounds synthesized on the proliferation of the Glioblastoma U-251 cell, exponentially growing cells were seeded in the cell culture media of DMEM with 10% FBS and 1% penicillin-streptomycin at a concentration of 10000 cells/ml in a 384-well plate with 20 ul per well and incubated overnight at 37° C., 5% CO2 incubator. Compounds were prepared as 10-point, 3-fold serial dilutions in DMSO, beginning at 6 mM. 1 μl of DMSO solutions from the compound stock plates were added to 99 ul of cell culture media (final top concentration of compound in the assay was 30 uM and the final concentration of DMSO was 0.5%). 20 μL of compound solutions in media were added to each well of U-251 cell plates. After adding compound solutions, assay plates were incubated for 12 days at 37° C., 5% CO2. During this incubation period, cell culture media with freshly dissolved testing compounds was changed every 4 days. After removing old media from cell plates, 40 ul of media with testing compounds dissolved, which were prepared by adding 1 ul of compound DMSO serial solutions to 199 ul of cell media, were added to the assay plates with the same layout as they were initially prepared. After 8 or 12 days, cell viability was measured using the CellTiter-Glo assay kit from Promega (Madison, Wis., USA) by quantitating the ATP present in the cell cultures. 20 μL of CellTiter-Glo reagent was added to each well of the cell plates. Luminescence was read after 10 minute of incubation with the Envision multiple plate reader from PerkinElmer (Waltham, Mass., USA). The concentrations of compounds inhibiting cell viability by 50% (IC50 values) were determined using a sigmoidal dose-response model (variable slopes, four parameters) in Prism 7 (La Jolla, Calif., USA).

[3] = tested on: A-549; test: Lung cancer panel proliferation inhibition, A-549; format: cell-based; conditions: Homo sapiens
Description: Inhibitory ability of compounds synthesized on the proliferation of three panels of cancer cell lines, including 5 breast cancer, 6 liver cancer, and 3 lung cancer cell lines were evaluated. Exponentially growing cells were seeded in the media of choice at various cell densities in 384-well plates with 20 ul per well and incubated overnight at 37° C., 5% CO2 incubator. Compounds were prepared as 10-point, 3-fold serial dilutions in DMSO, beginning at 6 mM. 1 μl of DMSO solutions from the compound stock plates were added to 99 ul of cell media (final top concentration of compound in the assay was 30 uM and the final concentration of DMSO was 0.5%). 20 μL of compound solutions in media were added to each well of plates with cells seeded. After adding compound solutions, assay plates were incubated for 8 and 12 days, respectively, at 37° C., 5% CO2. During this incubation period, cell media was changed every 4 days. After removing old media from cell plates, 40 ul of media with testing compounds dissolved, which were prepared by adding 1 ul of compound DMSO serial solutions to 199 ul of cell media, were added to the assay plates with the same layout as they were initially prepared. After 8 or 12 days, cell viability was measured using the CellTiter-Glo assay kit from Promega (Madison, Wis., USA) by quantitating the ATP present in the cell cultures. 20 μL of CellTiter-Glo reagent was added to each well of the cell plates. Luminescence was read after 10 minute of incubation with the Envision multiple plate reader from PerkinElmer (Waltham, Mass., USA). The concentrations of compounds inhibiting cell viability by 50% (IC50 values) were determined using a sigmoidal dose-response model (variable slopes, four parameters) in Prism 7 (La Jolla, Calif., USA).

[4] = A549, 192 h, A-549, 8 days, read-out: IC50 (μM) 8 days
[5] = A549, 288 h, A-549, 12 days, read-out: IC50 (μM) 12 days

plasma clearance [1] [mL/min/kg] | Vd [1] [L/kg] | AUC(0-t) [1] [ng·h/mL] | Cmax [1] [ng/mL] | Tmax [1] [h] | bioavailability [1] [%] | half-life [1] [min] | IC50 [2] [µM] | IC50 [3, 4] [µM] | IC50 [3, 5] [µM] | SMILES
35.3 | 5.02 ± 0.389 | 2260 ± 764 | 563 ± 233 | 1.33 ± 0.577 | 48.1 ± 16.1 | 181 ± 24.8 | 0.293 | 0.13 | 0.028 | CC(=O)N1CCC(Nc2ccc3c(c2)C(=O)N(C[C@H](O)CN2CCc4ccccc4C2)CCO3)CC1 [Compound 52a, (R)-7-((1-acetylpiperidin-4-yl)amino)-4-(3-(3,4-dihydroisoquinolin-2(1H)-yl)-2-hydroxypropyl)-3,4-dihydrobenzo[f][1,4]oxazepin-5(2H)-one]
31.7 | 7.15 ± 2.86 | 3280 ± 805 | 798 ± 247 | 1.17 ± 0.764 | 62 ± 15.1 | 188 ± 24.9 | 0.097 | 0.064 | 0.037 | CC(=O)N1CCC(Nc2ccc3c(c2)C(=O)N(C[C@H](O)CN2CCc4ccccc4C2)CC3)CC1 [Compound 24a, (R)-7-((1-acetylpiperidin-4-yl)amino)-2-(3-(3,4-dihydroisoquinolin-2(1H)-yl)-2-hydroxypropyl)-3,4-dihydroisoquinolin-1(2H)-one]
35.5 | 2.17 ± 0.0643 | 1400 ± 601 | 364 ± 82.5 | 1.67 ± 0.577 | 30.5 ± 13 | 90 ± 7.38 | 0.17 | 0.096 | 0.066 | CC(=O)N1CCC(Nc2cc(C(=O)NC[C@H](O)CN3CCc4ccccc4C3)ncn2)CC1 [Compound C3, reference compound]
